Reference: patent US10441569B2, “Self-emulsifying formulations of DIM-related indoles” (BioResponse, L.L.C., priority 2015, dated 2019)

Assays:
[1] = Single dose human oral bioavailability study (plasma DIM by LC-MS/MS); format: in vivo; conditions: both sexes
Protocol: Study Design: Single Center, Single-Blind, Single Dose, Oral Bioavailability Study, with Subject Crossover.
In Part I of the Study, a treatment group was administered a 300 mg dose of DIM from BR-DIM or a 300 mg dose of DIM from crystalline DIM on the first study day, followed by crossover to the other DIM formulation on the second study day, at least 14 days following the first treatment. 3 subjects were given crystalline DIM, 4 subjects were given BR-DIM.
In Part II of the Study, five individuals, four of whom participated in Part I of the Study, were administered a 300 mg dose of DIM from DIM SMEDDS Formulation D. Testing of DIM SMEDDS formula D took place on one day with 5 subjects. The subjects were all healthy, adult volunteers, both male and female, not consuming DIM containing supplements and in a fasting state on study days. Volunteers agreed not to consume cruciferous vegetable for one week prior to study days. Study groups consisted of 3, 4, or 5 individuals.
A baseline blood specimen was collected. For Part I of the Study, subjects ingested matching, opaque gelatin capsules containing either crystalline DIM (300 mg) or BR-DIM providing 300 mg DIM. Then, the subjects provided 8 cc samples of blood was collected at Baseline, and 1 hr, 2 hr, 3 hr, 4 hr, and 6 hr after administration of each of the formulations. A standard small meal was given at 4 hrs.
A baseline blood specimen was collected. Subjects ingested opaque gelatin capsules containing SEDDS DIM formulation (in particular, Formulation D described above) providing 300 mg dissolved DIM. The DIM SMEDDS formulation was provided in 3 hard gelatin capsules each containing 100 mg of DIM. Subsequently, 8 cc samples of blood were obtained and 30 cc samples of urine will be obtained according to the following chart. Blood was collected at Baseline, and 1 hr, 2 hr, 3 hr, 4 hr, and 6 hr after administration of the drug. A standard small meal was given at 4 hrs.
Blood sample handling: Within 15 minutes, plasma was centrifuged and frozen, stored on dry ice, then stored at minus 80 until assayed.
Pharmacokinetic evaluation was performed for all subjects. Blood samples (˜8 ml for each) were collected at 0 (baseline), 1, 2, 3, 4, and 6 hours after the oral administration of the dose of DIM, BR-DIM, or DIM SMEDDS formulation (i.e., Formulation D described above). Within 15 minutes of the collection, the blood samples were centrifuged at 4° C., at 2000 g for 10 minutes, and plasma was collected immediately after centrifugation and transferred to the screw-cap polypropylene cryogenic tubes. The plasma samples were stored at −80° C. until analysis.
The concentrations of DIM in human plasma samples were determined by a validated high-performance liquid chromatography with tandem mass spectrometry (LC-MS/MS) method. Briefly, to 50 μl human plasma, 100 μl of 2% formic acid in methanol (containing 1 μg/mL internal standard zileuton) was added to precipitate proteins. The mixture was vortex-mixed for 1 minute, and centrifuged at 14,000 g at 4° C. for 10 minutes. The supernatant was collected and 10 μl was injected into the LC-MS/MS system. Chromatographic analysis was performed using a Waters model 2690 separation system (Milford, Mass., USA). The analytes were separated on a Waters X-Terra MS column (150 mm×2.1 mm i.d.) using a mobile phase consisting of methanol/0.45% formic acid (70:30, v/v), and isocratic flow at 0.2 mL/min. The analytes were monitored by a Waters Micromass triple quadrupole mass spectrometer (Milford, Mass., USA) using an electrospray probe in the positive ionization mode operating at a cone voltage of 23V for DIM and 13V for the internal standard zileuton. Samples were introduced into the ionization source through a heated nebulized probe (350° C.). The collision energy was set at 30 eV and 9 eV for DIM and zileuton, respectively. The transitions at 129.9>76.8 and 237.1>161.1 were monitored for DIM and zileuton, respectively. […]

[2] = Experimental log P of DIM (octanol / aqueous shake-flask, HPLC); format: physicochemical; conditions: octanol / aqueous media (separate shake-flask solubilities); from octanol and aqueous shake-flask results; read-out: Experimental log P Determination
Protocol: In directly determining the solubility of DIM the shake-flask method for determination of maximum solubility in aqueous media was utilized. The solubility was determined as described by Lindenberg et al., 2004, Eur J Pharm Biopharm. 58(2):265-78. The drug was weighed in excess of its expected solubility in Uniprep® vials equipped with a 0.45-μm membrane filter, and 2 ml of Milli-Q water, 0.01N HCL (pH 2.0), or phosphate buffer (pH 7.4) (USP) was added into the vial. The vials were incubated at 37±0.5° C. while shaking on a “Polymax 1040” orbital shaker (Heidolph, Schwabach). The samples of the solutions were taken after 4 or 24 hours by pressing the Uniprep® plunger down, diluted as appropriate, and the concentration of DIM was analyzed by HPLC, as described below. The measurements were done in triplicate. The maximum concentration of DIM in aqueous media used in this study was 0.6 μg/ml. The solubility or stability was not influenced by pH and was similar in water, 0.01N HCl or PBS (pH 7.4).

[3] = Solubility of DIM in individual excipients (incremental addition, microscopic observation); format: physicochemical
Protocol: The first step in this development process was the testing of a variety of excipients chosen as potentially active in solubilizing DIM. […] The method involved weighing of approximately 2 grams of each of the liquid excipients into a small vial. Subsequently, a small amount of DIM was added and the mixture was shaken.
The method involved weighing of approximately 2 grams of each of the liquid excipients into a small vial. Subsequently, a small amount of DIM was added and the mixture was shaken. […] Continued testing of acceptable oil solvents for, e.g., nutritional supplement, self-emulsifying formulations using DIM as a representative DIM-related indole active ingredient included testing of the following oils: […]

[4] = healthy humans, single oral dose 300 mg DIM, averaged

Structure (SMILES): c1ccc2c(Cc3c[nH]c4ccccc34)c[nH]c2c1 [DIM, 3,3′-diindolylmethane]
- AUC(0-inf) [1, 4]: 98.5 ng·h/mL
- Cmax [1, 4]: 18.1 ng/mL
- Tmax [1, 4]: 1.7 h
- half-life [1, 4]: 2.2 h
- concentration at 0 h ([1]; time 0 hour (baseline), 300 mg oral, read-out: averaged plasma level of DIM): 0 ng/mL
- concentration at 1 h ([1]; time 1 hour, 300 mg oral, read-out: averaged plasma level of DIM): 17.8 ng/mL
- concentration at 2 h ([1]; time 2 hour, 300 mg oral, read-out: averaged plasma level of DIM): 16.7 ng/mL
- concentration at 3 h ([1]; time 3 hour, 300 mg oral, read-out: averaged plasma level of DIM): 10.6 ng/mL
- concentration at 4 h ([1]; time 4 hour, 300 mg oral, read-out: averaged plasma level of DIM): 10 ng/mL
- concentration at 6 h ([1]; time 6 hour, 300 mg oral, read-out: averaged plasma level of DIM): 5.8 ng/mL
- AUC ([1]; time zero to infinity, 300 mg oral): 98.5 ng·h/mL
- logP [2]: 3.58
- DIM Solubility % ([3]; in Black Cumin oil): 2%
- DIM Solubility ([3]; in Capryol 90 (Propylene glycol monocaprylate)): 7%
- DIM Solubility ([3]; in Capryol PGMC (Propylene glycol monocaprylate)): 8%
- DIM Solubility ([3]; in Crodasol HS-HP (monoesters and diesters of 12-hydroxystearic acid and macrogols)): 14%
- DIM Solubility ([3]; in Gelucire 44/14 (Lauroyl polyoxyl-32 glycerides)): 19%
- DIM Solubility ([3]; in Labrafac AC WL1349 (Medium-chain triglycerides)): 3%
- DIM Solubility ([3]; in Labrafac PG (Propylene glycol di-caprylate)): 4.5%^
- DIM Solubility ([3]; in Labrafil M1944CS (Oleoyl polyoxyl-6 glycerides)): 5%
- DIM Solubility ([3]; in Labrasol ALF (Caprylocaproyl polyoxyl-8 glycerides)): 25%
- DIM Solubility ([3]; in Lauroylglycol 90 (Propylene glycol monolaurate)): 3%
- DIM Solubility ([3]; in Maisine 35-1 (Glyceryl monolinoleate)): 2%
- DIM Solubility ([3]; in Peceol (Glycerol monooleate)): 2%
- DIM Solubility ([3]; in Peppermint oil): 4%
- DIM Solubility ([3]; in Plurol Oleique (Glycerol mono/di-oleate)): 5%
- DIM Solubility ([3]; in Polysorbate 80): 12%
- DIM Solubility ([3]; in Propylene glycol): 2%
- DIM Solubility % ([3]; in Rosemary Oil): 6%
- DIM Solubility ([3]; in Transcutol (Diethylene glycol monoethyl ether)): >25%
- ability of oil to dissolve DIM ([3]; olive oil or sunflower oil): very low ability to dissolve DIM
